The text below walks through data of PMC6692079 (Journal of medicinal chemistry, 2018).

Entries after “also recorded” stand apart in the source; their conditions may differ. Where a name gives a salt, the structure may show the parent alone. Read-outs that look alike come from different tables or passages of the source. Some results are limits rather than exact numbers.

Data set [1] deals with T1, human δ opioid receptor (Homo sapiens, UniProt P41143). As to conditions: cloned human receptor, cited from earlier work.
The target in data set [2] is T2, human κ opioid receptor (Homo sapiens, UniProt P41145). As to conditions: cloned human receptor, cited from earlier work.
In data set [3] the target is T3, human μ opioid receptor (Homo sapiens, UniProt P35372). Conditions: cloned human receptor; cited from earlier work.
In data set [4] the target is T1, human δ opioid receptor. Kind of data set: biochemical.
Data set [5] has as its target T2, human κ opioid receptor. Kind of data set: biochemical. Type of data set: biochemical. Conditions: for δ/κ: selectivity for κ relative to δ.
Data set [6] deals with T3, human μ opioid receptor. Kind of data set: biochemical.
The nature of data set [7]: Pharmacokinetics in plasma and brain after a single sc dose. The format is in vivo, Male Sprague—Dawley rats. Conditions: 5 mg/kg sc.
The conditions of data set [8]: 5 mg/kg in male rats, cited from earlier work.

T1 sequence (P41143 whole entry): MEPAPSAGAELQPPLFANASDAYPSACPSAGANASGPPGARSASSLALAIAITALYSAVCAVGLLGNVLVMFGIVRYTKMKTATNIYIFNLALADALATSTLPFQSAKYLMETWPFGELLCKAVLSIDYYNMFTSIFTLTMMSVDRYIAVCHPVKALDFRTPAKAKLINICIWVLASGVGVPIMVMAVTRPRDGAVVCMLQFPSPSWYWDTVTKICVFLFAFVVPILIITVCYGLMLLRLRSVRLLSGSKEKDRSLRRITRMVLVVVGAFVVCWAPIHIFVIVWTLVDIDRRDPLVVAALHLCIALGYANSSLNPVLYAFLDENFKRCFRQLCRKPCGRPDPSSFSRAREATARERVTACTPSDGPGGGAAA
T3 sequence (P35372 whole entry): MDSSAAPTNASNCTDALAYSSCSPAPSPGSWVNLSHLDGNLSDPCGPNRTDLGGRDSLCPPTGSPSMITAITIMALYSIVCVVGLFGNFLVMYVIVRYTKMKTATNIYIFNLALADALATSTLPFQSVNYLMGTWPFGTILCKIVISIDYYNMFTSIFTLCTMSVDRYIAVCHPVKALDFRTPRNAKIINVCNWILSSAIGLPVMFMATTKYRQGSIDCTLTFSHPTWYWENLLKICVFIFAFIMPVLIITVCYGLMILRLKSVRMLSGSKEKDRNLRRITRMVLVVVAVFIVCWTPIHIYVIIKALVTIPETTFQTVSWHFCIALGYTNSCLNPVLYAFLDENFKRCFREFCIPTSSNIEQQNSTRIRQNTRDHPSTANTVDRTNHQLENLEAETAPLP
T2 sequence (P41145 whole entry): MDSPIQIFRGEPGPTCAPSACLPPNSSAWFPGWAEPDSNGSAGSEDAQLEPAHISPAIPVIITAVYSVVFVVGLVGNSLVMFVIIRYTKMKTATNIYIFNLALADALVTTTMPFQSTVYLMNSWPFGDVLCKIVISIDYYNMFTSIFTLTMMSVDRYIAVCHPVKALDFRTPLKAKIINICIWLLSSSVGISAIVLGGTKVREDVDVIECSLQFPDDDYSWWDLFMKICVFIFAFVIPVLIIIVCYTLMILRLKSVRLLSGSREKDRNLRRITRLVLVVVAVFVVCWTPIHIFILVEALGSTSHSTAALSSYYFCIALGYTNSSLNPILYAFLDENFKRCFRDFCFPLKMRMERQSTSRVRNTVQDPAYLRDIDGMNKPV

Regarding `CC(C)[C@@H](CN1CC[C@@](C)(c2cccc(O)c2)[C@@H](C)C1)NC(=O)[C@H]1Cc2ccc(O)cc2CN1C` [Compound 46, reference compound], the “Ke δ, DPDPE” value on human δ opioid receptor [1] was 491 ± 120 nM. In addition, the “Ke κ, U69,593” value at human κ opioid receptor [2] is 0.16 ± 0.06 nM. In addition, at human μ opioid receptor [3], the “Ke μ, DAMGO” value was 210 ± 60 nM.
Turning to `CC1CCN(C[C@@H](NC(=O)[C@H](N)Cc2ccc(O)cc2)C(C)C)CC1` [Compound 36, N-{(1S)-2-Methyl-1-[(4-methylpiperidin-1-yl)methyl]propyl}-D-ty-rosinamide Dihydrochloride], the Kb at human δ opioid receptor [4] is over 3 µM; on human κ opioid receptor [5], 0.387 ± 0.089 µM; on human μ opioid receptor [6], over 3 µM. In addition, the “fold loss in κ opioid receptor antagonist potency relative to 12” value on human κ opioid receptor [5] is on record as “over 1000”. The δ/κ at human κ opioid receptor [5] (ratio of Ke values) is given as over 8. The μ/κ on human κ opioid receptor [5] (ratio of Ke values, selectivity for κ relative to μ) is recorded as over 8.
For `CC(C)[C@@H](CN1CCC(N(C)C)CC1)NC(=O)[C@H]1Cc2ccc(O)cc2CN1` [Compound 23, (3R)-N-[(1S)-1-{[4-(Dimethylamino)piperidin-1-yl]methyl}−2-methylpropyl]-7-hydroxy-1,2,3,4-tetrahydroisoquinoline-3-carboxamide Trihydrochloride], on human δ opioid receptor [4], the Kb was over 3 µM. On human κ opioid receptor [5] (ratio of Ke values), the δ/κ is reported as over 371.
At human δ opioid receptor [4], `CC(C)CN(CC(C)C)C[C@@H](NC(=O)[C@H]1Cc2ccc(O)cc2CN1)C(C)C` [Compound 10, (3R)-N-{(1S)-1-{[Bis(2-methylpropyl)amino]methyl}−2-methyl-propyl]-7-hydroxy-1,2,3,4-tetrahydroisoquinoline-3-carboxamide Dihydrochloride] displayed a Kb of over 3 µM.
For `COC1CCN(C[C@@H](NC(=O)[C@H]2Cc3ccc(O)cc3CN2)C(C)C)CC1` [Compound 22, (3R)-7-Hydroxy-N-{(1S)-2-methyl-1-[(4-methoxypiperidin-1-yl)-methyl]propyl}−1,2,3,4-tetrahydroisoquinoline-3-carboxamide Dihydrochloride], the Kb on human δ opioid receptor [4] is over 3 µM. Besides, on human κ opioid receptor [5] (ratio of Ke values), the δ/κ is over 459.
Consider `CC(C)[C@@H](CN1CCC(F)(F)CC1)NC(=O)[C@H]1Cc2ccc(O)cc2CN1` [Compound 24, (3R)-N-{[(1S)-1-[4,4-Difluoropiperidin-1-yl]methyl]-2-methyl-propyl}−7-hydroxy-1,2,3,4-tetrahydroisoquinoline-3-carboxamide Dihydrochloride], for which the Kb at human δ opioid receptor [4] is over 3 µM. Further, on human κ opioid receptor [5] (ratio of Ke values), the δ/κ is over 254.
`CC(C)[C@@H](CN1CCCCC1)NC(=O)[C@H]1Cc2ccc(O)cc2CN1` [Compound 1, (3R)‑7-Hydroxy‑N‑[(1S)‑2-methyl-1-(piperidin-1-ylmethyl)propyl]-1,2,3,4-tetrahydroisoquinoline-3-carboxamide]: at human δ opioid receptor [1] (previously reported), the “Ke δ, DPDPE” value is on record as over 3000 nM. Further, the “Ke κ, U69,593” value at human κ opioid receptor [2] (previously reported) is recorded as 6.80 ± 2.1 nM.
Regarding `CCN(CC)C[C@@H](NC(=O)[C@H]1Cc2ccc(O)cc2CN1)C(C)C` [Compound 8, (3R)-N-{(1S)-1-[(4,4-Diethylamino)methyl]-2-methylpropyl]-7-hydroxy-1,2,3,4-tetrahydroisoquinoline-3-carboxamide Dihydrochloride], the Kb at human δ opioid receptor [4] was over 3 µM; at human κ opioid receptor [5] it was 0.0418 ± 0.012 µM; at human μ opioid receptor [6] it was 0.69 ± 0.11 µM. Also, at human κ opioid receptor [5] (ratio of Ke values), the δ/κ is on record as over 72.
At human δ opioid receptor [4], `CC1CCN(C[C@@H](NC(=O)[C@H]2Cc3ccc(O)cc3CN2)C(C)C)CC1` [Compound 12, (3R)-7-Hydroxy-N-{(1S)-2-methyl-1-[(4-methylpiperidin-1-yl)-methyl]propyl}−1,2,3,4-tetrahydroisoquinoline-3-carboxamide Dihydrochloride] showed a Kb of over 3 µM. The “persistence in plasma and brain post dose” value in data set [7] (last sampling time) is given as 168 h. For the same compound, the clearance in data set [7] (plasma) stood at 43.75 mL/min/kg. In addition, in data set [7] (rats, 5 mg/kg), the brain penetration entry was “does indeed penetrate the brain; also recorded: crossed the blood—brain barrier; also recorded: did indeed readily penetrate the brain”.
In the case of `CC(C)[C@@H](CN1CCCCC1C)NC(=O)[C@H]1Cc2ccc(O)cc2CN1` (mixture of isomers) [Compound 14, (3R)-7-Hydroxy-N-{(1S)-2-methyl-1-[((2RS)-2-methylpiperidin-1-yl)methyl]propyl}−1,2,3,4-tetrahydroisoquinoline-3-carboxamide Dihydrochloride], the Kb on human δ opioid receptor [4] is over 3 µM. For the same compound, the δ/κ on human κ opioid receptor [5] (ratio of Ke values) is over 199.
The like results for `CC(C)[C@@H](CN1CCC(C(N)=O)CC1)NC(=O)[C@H]1Cc2ccc(O)cc2CN1` [Compound 26] were, in that order, over 3 µM and over 932.
`CC(C)[C@@H](CN1CCC(C(F)(F)F)CC1)NC(=O)[C@H]1Cc2ccc(O)cc2CN1` [Compound 20, (3R)-7-Hydroxy-N-[(1S)-2-methyl-1-{[4-(trifluoromethyl)-piperidin-1-yl]methyl}propyl]-1,2,3,4-tetrahydroisoquinoline-3-carboxamide Dihydrochloride] came in with a Kb on human δ opioid receptor [4] of over 3 µM. At human κ opioid receptor [5] (ratio of Ke values), the δ/κ is recorded as over 640.
With `CC(C)[C@@H](CN1CCC(C)(C)CC1)NC(=O)[C@H]1Cc2ccc(O)cc2CN1` [Compound 18, (3R)-N-{(1S)-1-[(4,4-Dimethylpiperidin-1-yl)methyl]-2-methylpropyl}−7-hydroxy-1,2,3,4-tetrahydroisoquinoline-3-carboxamide Dihydrochloride], the Kb at human κ opioid receptor [5] was found to be 0.00357 ± 0.0015 µM.
Turning to `CC(C)[C@@H](CN1CC[C@@](C)(c2cccc(O)c2)[C@@H](C)C1)NC(=O)[C@H]1Cc2ccc(O)cc2CN1` [JDTic, (3R)-1,2,3,4-tetrahydro-7-hydroxy-N-[(1S)-1-[[(3R,4R)-4-(3-hydroxy-phenyl)-3,4-dimethyl-1-piperidinyl]methyl]-2-methylpropyl]-3-iso-quinolinecarboxamide], the half-life in data set [8] (brain) is on record as 51.8 h; in data set [8] (plasma), 28.4 h.
As for `CC(C)[C@@H](CN1CCN(C)CC1)NC(=O)[C@H]1Cc2ccc(O)cc2CN1` [Compound 7, (3R)-7-Hydroxy-N-{(1S)-2-methyl-1-[(4-methylpiperizin-1-yl)-methyl]propyl}−1,2,3,4-tetrahydroisoquinoline-3-carboxamide Trihydrochloride], at human δ opioid receptor [4], the Kb is over 3 µM. Further, the δ/κ at human κ opioid receptor [5] (ratio of Ke values) was over 30.
Compound `CC(C)[C@@H](CN1CCOCC1)NC(=O)[C@H]1Cc2ccc(O)cc2CN1` [Compound 6, (3R)-7-Hydroxy-N-[(1S)-2-methyl-1-(morpholin-4-ylmethyl)-propyl]-1,2,3,4-tetrahydroisoquinoline-3-carboxamide Dihydrochloride] yielded a Kb at human δ opioid receptor [4] of over 3 µM.
Consider `CC(C)[C@@H](CN1CCC(C#N)CC1)NC(=O)[C@H]1Cc2ccc(O)cc2CN1` [Compound 25, (3R)-N-{(1S)-1-[(4-Cyanopiperidin-1-yl)methyl]-2-methylprolyl}−7-hydroxy-1,2,3,4-tetrahydroisoquinoline-3-carboxamide Dihydrochloride], for which the Kb at human δ opioid receptor [4] is over 3 µM. Also, the δ/κ on human κ opioid receptor [5] (ratio of Ke values) was over 236.
